Tests used:
Assay type in all cases: physicochemical
[1] = X-ray powder diffraction of sodium lauryl sulfate lots after storage under accelerated condition; conditions: for storage period in which XRPD peaks of sodium lauryl sulfate-dodecanol complex were observed: 70° C., relative humidity about 10% (saturated LiCl), open system, stored up to day 11; for storage period at which new XRPD peaks (2θ around 4.9° and 7.4°) were first detected: airtight system, up to 4 days
Procedure: Samples (appropriate amount) of different lots, Lot 1 (production date: 2015.12.22) and Lot 2 (production date: 2017.3.10)) of sodium lauryl sulfate, which were obtained from a single manufacturer and produced on different days, were placed in glass vials and stored in an airtight system under condition 1A (temperature 60° C.) and condition 1B (temperature 70° C.). Samples before storage, stored for 3 days and 4 day were subjected to X-ray powder diffraction (XRPD). Measurement was performed in the conditions shown below.
X-ray powder diffraction method: • Measuring device: X′Pert-Pro MPD (manufactured by PANalytical) • Anti-cathode: Cu • Tube voltage: 45 kV • Tube current: 40 mA • Step width: 0.02 • Scan axis: 20 • Sampling time per step: 43 seconds • Scan range: 3 to 40°
(§1) A sample of sodium lauryl sulfate (about 250 mg) was placed in a glass vial and stored in an open system at a temperature of 70° C. and a relative humidity of about 10% (a saturated aqueous solution of LiCl). Samples of before storage, stored for a single day, 2 days, 3 days, 4 days, 7 days and 11 days were subjected to X-ray powder diffraction performed in the conditions of Example 1.

[2] = Sulfate ion quantification by ion chromatography in sodium lauryl sulfate after accelerated storage; conditions: for sulfate ion concentration in sample solution: after 4-day storage at 70° C., relative humidity about 10%, about 5 mg sample in 50 mL water
Procedure: as §1
Sulfate ions generated by decomposition of sodium lauryl sulfate in the samples of Lot 1 and Lot 2 after 4-day storage were quantified by ion chromatography shown below.
Sodium lauryl sulfate (about 5 mg) was weighed and water was added up to 50 mL. The solution was irradiated with ultrasonic wave for 15 minutes and filtered by a membrane filter (DISMIC-25HP PTFE 0.45 μm HYDROPHILIC, manufactured by ADVANTEC). The filtrate was passed through a solid-phase extraction cartridge (Dionex OnGuard II RP, manufactured by ThermoFisher Scientific) washed and the eluate was used as a sample solution. Separately, solutions having a sulfate ion concentration of 1 mg/L, 2 mg/L, 3 mg/L, 4 mg/L and 5 mg/L were prepared by use of the sulfate ion standard solution (1 g/L, manufactured by Wako Pure Chemical Industries Ltd.) for ion chromatography and used as the standard solutions. […]
The concentration of sulfate ion in a sample solution was calculated based on the calibration curve prepared by using the standard solutions.
Sodium lauryl sulfate is usually stored at room temperature; however, there are possible cases, e.g., transportation, where it is stored at a higher temperature than room temperature. […] After storage, sulfate ions generated by decomposition of sodium lauryl sulfate in the sample were quantified by ion chromatography shown in Example 4.

[3] = X-ray powder diffraction of sodium lauryl sulfate lots after storage under accelerated condition; conditions: for storage period at which new XRPD peaks were first detected: open system, sulfate
[4] = condition 2A: 70° C., relative humidity about 79% (saturated NaCl)
[5] = condition 2B: 70° C., relative humidity about 10% (saturated LiCl), up to 6 days

storage period in which XRPD peaks of sodium lauryl sulfate-dodecanol complex were observed [1]	storage period at which new XRPD peaks (2θ around 4.9° and 7.4°) were first detected ([1]; condition 1A: 60° C.)	storage period at which new XRPD peaks (2θ around 4.9° and 7.4°) were first detected ([1]; condition 1B: 70° C.)	sulfate ion concentration in sample solution [2]	storage period at which new XRPD peaks were first detected [3, 4]	physical state of sample after storage ([3]; condition 2A: 70° C., relative humidity about 79%, 2-days and 3-days storage)	storage period at which new XRPD peaks were first detected [3, 5]	sulfate ion concentration detected by ion chromatography ([2]; prior storage under Conditions 1-17 of Table 1 (30-40° C. 45 days plus up to 48 hours at up to 60° C.), then 70° C., about 10% RH, 4 days)	Structure (SMILES)
≥ 3 days	4 days	3 days	24.1 mg/L	1 days	changed to a liquid state	3 days		CCCCCCCCCCCCOS(=O)(=O)[O-].[Na+] [Lot 1, sodium lauryl sulfate]
> 11 days	> 4 days	> 4 days	≤ 1 mg/L	3 days		> 6 days		CCCCCCCCCCCCOS(=O)(=O)[O-].[Na+] [Lot 2, sodium lauryl sulfate]
							≤ 1 mg/L	CCCCCCCCCCCCOS(=O)(=O)[O-].[Na+] [Lot 5, sodium lauryl sulfate]

Reference: patent US20240100058A1, “METHOD FOR SELECTING, ASSESSING, OR PRODUCING SODIUM LAURYL SULFATE AS RAW MATERIAL FOR PHARMACEUTICAL FORMULATION, OR FORMULATION OR THE LIKE CONTAINING SAME” (Chugai Seiyaku Kabushiki Kaisha, priority 2019, published 2024)
